Data from PMC9578396, “Intrinsic Antibacterial Activity of Xeruborbactam In Vitro: Assessing Spectrum and Mode of Action” (Antimicrobial Agents and Chemotherapy, 2022).
Like-named read-outs stand apart in the source and are kept apart here.

What was measured:
Type in all cases: cell-based
Acinetobacter baumannii = assay: Broth microdilution MIC (CLSI), Acinetobacter baumannii; conditions: Acinetobacter baumannii
Source text: (§1) (i) Panels of engineered bacterial strains containing various combinations of porin and efflux mutations were used. The construction of all the strains used in the study is described in detail in references, [44], and [45]. (ii) KPC-producing clinical isolates and their derivatives that lost KPC plasmids were used also. These strains and their origins are described in the Table S2. (iii) Finally, KPC-producing clinical isolates enriched in strains with porin mutations were used. The mutations identified include various deletions, insertions, nonsense mutations, and decreased expression. Most of the isolates were obtained from JMI Laboratories or International Health Management Associates (IHMA); they were collected in the course of global surveillance studies.
(§2) Bacterial isolates were subjected to broth microdilution susceptibility testing, performed according to Clinical and Laboratory Standards Institute (CLSI) methods ([46]), using panels prepared in-house. […] Xeruborbactam was synthesized at Qpex Biopharma, San Diego, CA. Avibactam was purchased from eNovation Chemicals LLC, Bridgewater, NJ, USA; zidebactam was from MedKoo Biosciences, Inc., Morrisville, NC, and nacubactam was from Advanced ChemBlocks, Hayward, CA. Durlobactam was synthesized at Acme Bioscience, Palo Alto, CA, USA.

Escherichia coli = assay: Broth microdilution MIC (CLSI), Escherichia coli; conditions: Escherichia coli
Source text: as §1, §2

Klebsiella pneumoniae = assay: microbe, parasite or virus in culture
Source text: as §1, §2

Pseudomonas aeruginosa = assay: Broth microdilution MIC (CLSI), Pseudomonas aeruginosa
Source text: as §1, §2

[1] = strain AB1007, wild type, read-out: MIC
[2] = strain ACM1015, ΔadeIJK ΔadeABC
[3] = strain ACM1027, adeN (AdeIJK overexpression)
[4] = strain ACM1030, adeS (AdeABC overexpression)
[5] = strain ECM5497, wild type, read-out: MIC
[6] = strain ECM6502, marR (AcrAB overexpression)
[7] = Klebsiella pneumoniae, strain KPM1026a, wild type, read-out: MIC
[8] = Klebsiella pneumoniae, strain KPM1027, ramR, read-out: MIC
[9] = Klebsiella pneumoniae, strain KPM1171, ramR ompK36_1171, read-out: MIC
[10] = Klebsiella pneumoniae, strain KPM2040, ompK36_2040, read-out: MIC
[11] = Klebsiella pneumoniae, strain KPM2600, ΔompK35
[12] = Klebsiella pneumoniae, strain KPM2613, ΔompK35 ompK36_2040
[13] = Klebsiella pneumoniae, strain KPM2696, ΔacrB
[14] = Pseudomonas aeruginosa, strain PAM1020, wild type, read-out: MIC
[15] = Pseudomonas aeruginosa, strain PAM1032, nalB (MexAB-OprM overexpression)
[16] = Pseudomonas aeruginosa, strain PAM1033, nfxB (MexCD-OprJ overexpression)
[17] = Pseudomonas aeruginosa, strain PAM1034, nfxC (MexEF-OprN overexpression)
[18] = Pseudomonas aeruginosa, strain PAM1106, mexA::Tet
[19] = Pseudomonas aeruginosa, strain PAM1154, oprM::Hg

Compound `CO/N=C(\C(=O)N[C@@H]1C(=O)N2C(C(=O)[O-])=C(C[N+]3(C)CCCC3)CS[C@H]12)c1csc(N)n1` [Cefepime] has an MIC (Acinetobacter baumannii; AB1007 (no beta-lactamase), xeruborbactam 0 µg/ml, read-out: MIC) of 2 µg/mL, an MIC (Acinetobacter baumannii; AB1007, xeruborbactam 2 µg/ml, read-out: MIC) of 2 µg/mL and an MIC (Acinetobacter baumannii; AB1007, xeruborbactam 4 µg/ml, read-out: MIC) of 1 µg/mL. For the same compound, the MIC (Acinetobacter baumannii; AB1007, xeruborbactam 8 µg/ml, read-out: MIC) was 0.25 µg/mL, the MIC (Acinetobacter baumannii; [1]) was 4 µg/mL and the MIC (Acinetobacter baumannii; strain ACM1013, ΔadeIJK) was 4 µg/mL. It also gave an MIC (Acinetobacter baumannii; strain ACM1014, ΔadeABC) of 1 µg/mL, an MIC (Acinetobacter baumannii; [2]) of 0.25 µg/mL and an MIC (Acinetobacter baumannii; [3]) of 8 µg/mL. The MIC (Acinetobacter baumannii; [4]) was 32 µg/mL, the MIC (Escherichia coli; [5]) was 0.03 µg/mL and the MIC (Escherichia coli; strain ECM6001, ΔacrB) was 0.03 µg/mL. The MIC (Escherichia coli; [6]) was 0.125 µg/mL, the “fold below the MIC that corresponds to complete inhibition of KPC” value (Klebsiella pneumoniae; KP1074, in the presence of 8 μg/mL xeruborbactam) was 2- to 8 fold and the MIC (Klebsiella pneumoniae; KP1074, with xeruborbactam 2 µg/ml) was 0.5 µg/mL. The MIC (Klebsiella pneumoniae; KP1074, with xeruborbactam 4 µg/ml) was 0.25 µg/mL, the MIC (Klebsiella pneumoniae; KP1074, with xeruborbactam 8 µg/ml) was 0.125 µg/mL and the MIC (Klebsiella pneumoniae; KPM1026a (no beta-lactamase), xeruborbactam 0 µg/ml) was 0.03 µg/mL. The “fold decrease compared to MIC of antibiotic alone” value (shortened to “fold decrease compared to MIC”) (Klebsiella pneumoniae; KPM1026a, with xeruborbactam at 4 μg/mL) was 2 fold, the “fold decrease compared to MIC” value (Klebsiella pneumoniae; KPM1026a, with xeruborbactam at 8 μg/mL) was 16 fold and the MIC (Klebsiella pneumoniae; KPM1026a, xeruborbactam 2 µg/ml) was 0.015 µg/mL. The MIC (Klebsiella pneumoniae; KPM1026a, xeruborbactam 4 µg/ml) was 0.015 µg/mL, the MIC (Klebsiella pneumoniae; KPM1026a, xeruborbactam 8 µg/ml) was 0.002 µg/mL and the “fold decrease compared to MIC” value (Klebsiella pneumoniae; KPM3532 (TolQ::M189K), with xeruborbactam at 4 μg/mL) was 2 fold. The “fold decrease compared to MIC” value (Klebsiella pneumoniae; KPM3532 (TolQ::M189K), with xeruborbactam at 8 μg/mL) was 4 fold, the “fold decrease compared to MIC” value (Klebsiella pneumoniae; KPM3534 (TolQ::S31F), with xeruborbactam at 4 μg/mL) was 4 fold and the “fold decrease compared to MIC” value (Klebsiella pneumoniae; KPM3534 (TolQ::S31F), with xeruborbactam at 8 μg/mL) was 8 fold. For the same compound, the MIC (Klebsiella pneumoniae; Klebsiella pneumoniae, BAA2814, KPC-3-producing KP1074 (BAA-2814), xeruborbactam none, read-out: MIC) was 256 µg/mL, the MIC (Klebsiella pneumoniae; Klebsiella pneumoniae, KPM1026a, alone, read-out: MIC) was 0.03 µg/mL and the MIC (Klebsiella pneumoniae; Klebsiella pneumoniae, KPM1026a, parent, read-out: MIC) was 0.03 µg/mL. The MIC (Klebsiella pneumoniae; Klebsiella pneumoniae, KPM1211 (KP1074 after loss of pKpQIL), read-out: MIC) was 0.5 µg/mL, the MIC (Klebsiella pneumoniae; Klebsiella pneumoniae, KPM1271 (KPM1026a/KPC-3), alone, read-out: MIC) was 4 µg/mL and the MIC (Klebsiella pneumoniae; Klebsiella pneumoniae, KPM1281 (KPM1026a/NDM-1), alone, read-out: MIC) was 16 µg/mL. For the same compound, the MIC (Klebsiella pneumoniae; Klebsiella pneumoniae, KPM3532 (TolQ::M189K), alone) was 0.06 µg/mL, the MIC (Klebsiella pneumoniae; Klebsiella pneumoniae, KPM3532, TolQ::M189K) was 0.06 µg/mL and the MIC (Klebsiella pneumoniae; Klebsiella pneumoniae, KPM3534 (TolQ::S31F), alone) was 0.125 µg/mL. It also gave an MIC (Klebsiella pneumoniae; Klebsiella pneumoniae, KPM3534, TolQ::S31F) of 0.125 µg/mL, an MIC (Klebsiella pneumoniae; Klebsiella pneumoniae, KPM4127 (KPM3532 TolQ::M189K/KPC-3), alone) of 8 µg/mL and an MIC (Klebsiella pneumoniae; Klebsiella pneumoniae, KPM4128 (KPM3534 TolQ::S31F/KPC-3), alone) of 32 µg/mL. The MIC (Klebsiella pneumoniae; Klebsiella pneumoniae, KPM4129 (KPM3532 TolQ::M189K/NDM-1), alone) was 8 µg/mL, the MIC (Klebsiella pneumoniae; Klebsiella pneumoniae, KPM4130 (KPM3534 TolQ::S31F/NDM-1), alone) was 32 µg/mL and the MIC (Klebsiella pneumoniae; Klebsiella pneumoniae, KPM4235, TolQ::IP(183–1844)PR) was 0.125 µg/mL. It also gave an MIC (Klebsiella pneumoniae; Klebsiella pneumoniae, KPM4236, TolQ::TAA at aa 103) of 0.125 µg/mL, an MIC (Klebsiella pneumoniae; Klebsiella pneumoniae, KPM4238, TolQ::S25F) of 0.125 µg/mL and an MIC (Klebsiella pneumoniae; Klebsiella pneumoniae, KPM4239, TolQ::S28F) of 0.125 µg/mL. The MIC (Klebsiella pneumoniae; Klebsiella pneumoniae, KPM4240, TolQ::S25Y) was 0.125 µg/mL, the MIC (Klebsiella pneumoniae; [7]) was 0.03 µg/mL and the MIC (Klebsiella pneumoniae; [8]) was 0.25 µg/mL. It also gave an MIC (Klebsiella pneumoniae; [9]) of 2 µg/mL, an MIC (Klebsiella pneumoniae; [10]) of 0.125 µg/mL and an MIC (Klebsiella pneumoniae; [11]) of 0.25 µg/mL. The MIC (Klebsiella pneumoniae; [12]) was 0.25 µg/mL, the MIC (Klebsiella pneumoniae; [13]) was 0.03 µg/mL and the MIC (Pseudomonas aeruginosa; PAM1154 (oprM::Hg), xeruborbactam 0 µg/ml) was 0.5 µg/mL. It also gave an MIC (Pseudomonas aeruginosa; PAM1154, xeruborbactam 2 µg/ml) of 0.125 µg/mL, an MIC (Pseudomonas aeruginosa; PAM1154, xeruborbactam 4 µg/ml) of 0.125 µg/mL and an MIC (Pseudomonas aeruginosa; PAM1154, xeruborbactam 8 µg/ml) of 0.06 µg/mL. The MIC (Pseudomonas aeruginosa; [14]) was 0.5 µg/mL, the MIC (Pseudomonas aeruginosa; [15]) was 4 µg/mL and the MIC (Pseudomonas aeruginosa; [16]) was 4 µg/mL. The MIC (Pseudomonas aeruginosa; [17]) was 0.5 µg/mL, the MIC (Pseudomonas aeruginosa; [18]) was 0.25 µg/mL and the MIC (Pseudomonas aeruginosa; [19]) was 0.125 µg/mL.
`NCCONC(=O)[C@@H]1CC[C@@H]2CN1C(=O)N2OS(=O)(=O)O` [Nacubactam] showed an MIC (Acinetobacter baumannii; [1]) greater than 256 µg/mL, an MIC (Acinetobacter baumannii; strain ACM1013, ΔadeIJK) greater than 256 µg/mL and an MIC (Acinetobacter baumannii; strain ACM1014, ΔadeABC) greater than 256 µg/mL. It also gave an MIC (Acinetobacter baumannii; [2]) greater than 256 µg/mL, an MIC (Acinetobacter baumannii; [3]) greater than 256 µg/mL and an MIC (Acinetobacter baumannii; [4]) greater than 256 µg/mL. It also gave an MIC (Escherichia coli; [5]) of 4 µg/mL, an MIC (Escherichia coli; strain ECM6001, ΔacrB) of 4 µg/mL and an MIC (Escherichia coli; [6]) of 2 µg/mL. For the same compound, the MIC (Klebsiella pneumoniae; [7]) was 8 µg/mL, the MIC (Klebsiella pneumoniae; [8]) was 4 µg/mL and the MIC (Klebsiella pneumoniae; [9]) was greater than 64 µg/mL. For the same compound, the MIC (Klebsiella pneumoniae; [10]) was greater than 64 µg/mL, the MIC (Klebsiella pneumoniae; [11]) was 8 µg/mL and the MIC (Klebsiella pneumoniae; [12]) was greater than 64 µg/mL. The MIC (Klebsiella pneumoniae; [13]) was 2 µg/mL, the MIC (Pseudomonas aeruginosa; [14]) was 128 µg/mL and the MIC (Pseudomonas aeruginosa; [15]) was 128 µg/mL. The MIC (Pseudomonas aeruginosa; [16]) was 32 µg/mL, the MIC (Pseudomonas aeruginosa; [17]) was 128 µg/mL and the MIC (Pseudomonas aeruginosa; [18]) was 128 µg/mL. The MIC (Pseudomonas aeruginosa; [19]) was 128 µg/mL.
